Assay [1] deals with squamous cell carcinoma cells HN30, HN12, Cal-27, and HSC-3. Kind of assay: Inhibitory effect of compounds on the proliferation of squamous cell carcinoma cells HN30, HN12, Cal-27, HSC-3 (CCK-8 assay). Format: cell-based. Conditions: in words, 48 hours; for inhibitory effect on the proliferation of tumor cells: HN30, HN12, Cal-27, HSC-3, 0, 1.25, 2.5, 5, 10 μM. The procedure:
(§1) Squamous cell carcinoma cell lines: HN30, HN12, Cal-27, HSC-3.
(§2) Test compounds: Compounds 3a, 3b, 3c; Compound 1 (i.e., 5-fluorouracil).
(§3) The experimental procedure was as follows: All four tumor cell lines were cultured in a standardized incubator at 37 °C with 5% CO2. Cells in logarithmic growth phase were digested, counted, and seeded onto 96-well plates at 3000 cells/well. They were then cultured overnight in the incubator. The test compounds were prepared into a stock solution with DMSO at a concentration of 10 mM, and were diluted sequentially (0, 1.25, 2.5, 5, 10 μM) before treating the cells. The control group was treated with the highest concentration of DMSO. The cells were cultured for additional 48 hours in the incubator, and the effect of each compound on the proliferation of the four tumor cell lines was assessed using CCK-8 assay. Meanwhile, the experimental results of compound 3a and compound 1 were analyzed to obtain their IC50 values, and the effects of both compounds on tumor cell proliferation were compared.

Assay [2] deals with Cal27 cells. The experiment in a line: Inhibition of proliferation of Cal27 squamous cell carcinoma cells (CCK-8 assay). Type of assay: cell-based. Conditions: Homo sapiens, CAL-27, 48 hours, 0, 1.25, 2.5, 5, 10 μM, read-out: IC50 values against Cal27 cells. The protocol: as §1, §2, §3
In assay [3] the test system is HN30 cells. The experiment in a line: Inhibition of proliferation of HN30 squamous cell carcinoma cells (CCK-8 assay). Type of assay: cell-based. As to conditions: 48 hours, 0, 1.25, 2.5, 5, 10 μM, read-out: IC50 values against HN30 cells. The protocol:
as §1, §2, §3
A general note: Tetrazolium assays rely on reduction of a dye to a coloured formazan, in cell work by metabolically active cells.

The subject of assay [4] is OSCC cells. Conditions: in words; Heilongjiang Medicine and Pharmacy, February 2009; cited from earlier work.

Entries after “also recorded” stand apart in the source; their conditions may differ.

Usually IC50 stands for the concentration needed to halve the response being measured.

As to `O=C(CCn1cc(F)c(=O)[nH]c1=O)Nc1ccc(C23CC4CC(CC(C4)C2)C3)cc1` [Compound 3b], the “inhibitory effect on the proliferation of tumor cells” value (“inhibitory effect” below) in assay [1] is given as “did not show significant improvement”.

As for `O=C(CCn1c(=O)[nH]cc(F)c1=O)Nc1ccc(C23CC4CC(CC(C4)C2)C3)cc1` [Compound 3c], the “inhibitory effect” value in assay [1] was “did not show significant improvement”.

As for `O=c1[nH]cc(F)c(=O)[nH]1` [Compound 1, 5-fluorouracil], the half-inhibitory concentration (IC50) worked out at 22.8 µM in assay [2] and 21.7 µM in assay [3]. In addition, the “inhibitory effect” value in assay [1] was “higher anti-tumor activity in a higher concentration range”. In addition, the “induction of apoptosis in OSCC cells” value in assay [4] is “can induce apoptosis in OSCC cells”.

As for `O=C(CCn1cc(F)c(=O)n(CCC(=O)Nc2ccc(C34CC5CC(CC(C5)C3)C4)cc2)c1=O)Nc1ccc(C23CC4CC(CC(C4)C2)C3)cc1` [Compound 3a], the figures for the IC50 in assay [2] and in assay [3] were 6.54 µM and 7.09 µM, respectively. The “inhibitory effect” value in assay [1] was “significantly better inhibitory effect than 5-fluorouracil; also recorded: significantly higher than that of compounds 1, 3b, and 3c; also recorded: significantly better than that of 5-fluorouracil”. Further, in assay [1] (compound 3a versus compound 1, FIGS. 2 and 3 (HN30 and Cal27)), the “IC50 value compared with compound 1” value is “significantly lower than that of compound 1”.

The values above are taken from US20260373148A1, “5-FLUOROURACIL DERIVATIVE AND ANTI-TUMOR USE THEREOF” (SICHUAN UNIVERSITY, priority 2023, published 2026).
